Experimental data as given in patent publication EP0857721A1, “ACRIDONE COMPOUNDS” (Eisai Co., Ltd., priority 1995, dated 1997).
Where two headings read alike, the source gives them in different places.

What was measured:
RBL-2H3 cells = assay: Inhibition of serotonin liberation from IgE-sensitized, antigen-stimulated RBL-2H3 cells ([3H]-serotonin); type: cell-based; details: Rattus norvegicus; IgE-sensitized RBL-2H3 cells stimulated with specific antigen; [3H]-labeled serotonin
Description: Under the action of an antigen specific to the IgE antibody, RBL-2H3 cells, i.e., a cell line originating in rat cells, not only liberate histamine and serotonin but also produce and liberate cytokines such as TNF" serving as an inflammatory mediator and prostaglandins. In this experimental system, the effects of the compounds of the present invention of inhibiting the liberation of various mediators were examined by using serotonin as an indication.
The cells were labeled with [^3H]-labeled serotonin and, at the same time, sensitized with the IgE antibody. Next, these cells were incubated in the presence of the acridone compounds according to the present invention and then stimulated with the specific antigen. Then the serotonin liberation inhibitory activity of each acridone compound was calculated from the amount of the [^3H]-labeled serotonin thus liberated into the medium due to the above-mentioned stimulation and the amount of the [^3H]-labeled serotonin liberated into the medium by the same experimental procedure as the one described above but adding no acridone compound of the present invention.

human basophils = assay: Inhibition of mediator (histamine, peptide leukotriene) liberation from human basophils stimulated with tick antigen; type: cell-based; details: leukocyte fraction containing basophils, enzyme immunoassay
Description: To 20 ml of heparinized blood was added 6 ml of 6% dextran (for separating leukocytes, high molecular weight). The obtained mixture was thoroughly stirred and then allowed to stand at 37°C for 30 minutes to thereby sediment erythrocytes. The upper layer was taken out and phosphate-buffered saline was added thereto. The obtained mixture was centrifuged at 185 G for eight minutes to thereby give a crude leukocyte fraction. These cells (leukocyte fraction) were subjected to hypotonic hemolysis and then suspended in D-PBS(+) containing 0.1% of BSA. The cell suspension thus prepared was used in the subsequent experiment as the leukocyte fraction containing basophils.
To 0.4 ml of this cell suspension preliminarily heated at 37°C for 5 minutes was added 0.05 ml of a solution containing each acridone compound of the present invention. The obtained mixture was then allowed to stand at 37°C for 15 minutes so that the cells were pre-treated. Next, 0.05 ml of a tick antigen solution was added thereto to thereby induce an antigen-antibody reaction. Ten minutes thereafter, the antigen-antibody reaction was ceased by ice-cooling. After ceasing the reaction, the mixture was centrifuged at 185 G for ten minutes. The supernatant was taken out and the contents of histamine and a peptide leukotriene therein were determined by using each an enzyme immunoassay kit. Based on the data thus obtained, the activities of the compound of inhibiting the liberation of histamine and peptide leukotriene were determined.

[1] = target: T1, tyrosine kinase of 72 kDa (Rattus norvegicus, UniProt Q64725); assay: Inhibition of phosphorylation (activation) of the 72 kDa tyrosine kinase induced by phosphorylated TAM peptide of IgE receptor γ-chain, western blotting; type: biochemical; details: Compd. concentration 10 μM; RBL-2H3 lysate or cytosol, TAM peptide 10 µM, ATP 50 µM; tyrosine kinase phosphorylation inhibitory ratio; read-out: Inhibitory potency
T1 construct: the tyrosine kinase of 72 kDa contained in the lysate or cytosol thus prepared; endogenous in cells; host or cells: RBL-2H3 cells (NP-40 lysate or cytosol fraction)
T1 sequence (Q64725 whole entry): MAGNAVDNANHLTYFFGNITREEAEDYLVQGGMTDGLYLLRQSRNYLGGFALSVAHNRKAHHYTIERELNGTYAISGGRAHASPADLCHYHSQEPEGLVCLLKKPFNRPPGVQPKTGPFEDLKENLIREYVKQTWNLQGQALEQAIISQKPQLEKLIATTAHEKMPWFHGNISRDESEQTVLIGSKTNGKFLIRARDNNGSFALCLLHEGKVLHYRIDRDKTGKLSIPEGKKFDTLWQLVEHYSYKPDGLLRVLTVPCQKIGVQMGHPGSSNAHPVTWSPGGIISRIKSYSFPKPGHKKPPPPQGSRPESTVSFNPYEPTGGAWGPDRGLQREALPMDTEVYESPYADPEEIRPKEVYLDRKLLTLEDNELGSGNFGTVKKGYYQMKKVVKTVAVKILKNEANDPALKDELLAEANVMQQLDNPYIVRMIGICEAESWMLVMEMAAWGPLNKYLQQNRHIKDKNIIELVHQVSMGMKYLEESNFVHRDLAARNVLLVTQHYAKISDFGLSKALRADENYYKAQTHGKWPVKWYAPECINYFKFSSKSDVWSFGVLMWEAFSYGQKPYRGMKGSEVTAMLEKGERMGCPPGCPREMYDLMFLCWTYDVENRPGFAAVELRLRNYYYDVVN
Description: In this experiment, use was made of RBL-2H3 cells, i.e., a cell line which is generally employed in the studies on the informational transmission system in IgE receptors of mast cells or basophils and a peptide in the tyrosine activation motif (TAM) region containing phosphorylated tyrosine in a human IgE receptor γ chain synthesized by Peputido Kenkyusho K.K..
In this experiment, use was made of a lysate which had been obtained by solubilizing 1 × 10^7 to 5 × 10^7 cells with the use of a solution containing various proteases and NP-40 employed as a solubilizer at a concentration of 1% and a supernatant (as the cytosol fraction of the cells) which had been obtained by disrupting the cells with Down's homogenizer and centrifuging the obtained mixture at 50,000 rpm for 1 hour. The concentrations of the lysate and cytosol of the cells were each adjusted to 1 mg protein/ml with the use of an isotonic buffer. […]
The extent of the activation of this tyrosine kinase was determined by confirming the extent of the phosphorylation of the tyrosine moiety in the tyrosine kinase per se by western blotting with the use of an anti-tyrosine phosphorylation antibody and then numerically expressing the obtained data with an image analyzer. Based on the extent of the phosphorylation thus obtained, the tyrosine kinase phosphorylation inhibitory ratio of the compound 101 was determined.

[2] = histamine, read-out: IC50 (µM) in mediator liberation from human basophils histamine
[3] = peptide leukotriene, read-out: IC50 (µM) in mediator liberation from human basophils leukotriene

IC50 (human basophils; [2]) [µM]	IC50 (human basophils; [3]) [µM]	inhibition at 10 µM [1] [%]	Compound	IC50 (RBL-2H3 cells) [µM]
30	30 to 100	–	Cc1ccc2c(=O)c3c(CC(=O)O)cccc3n(CCCNCc3ccccc3)c2c1C [Compound 1]	3
10	3	–	Cc1ccc2c(=O)c3ccccc3n(CCCNCc3ccccc3O)c2c1C [Compound 39]	1
10 to 30	3 to 10	–	Cc1ccc2c(=O)c3c(CC(=O)O)cccc3n(CCCNCc3ccc(Cl)cc3Cl)c2c1C [Compound 13]	0.2
30	10	–	Cc1ccc2c(=O)c3c(C(C)C(=O)O)cccc3n(CCCNCc3ccc(Cl)cc3Cl)c2c1C (stereo not drawn) [Compound 143]	1
–	10 to 30	–	CNC(=O)Cc1cccc2c1c(=O)c1ccc(C)c(C)c1n2CCCN(C)Cc1ccccc1 [Compound 135]	2
–	10 to 30	70	Cc1ccc2c(=O)c3c(CC(=O)O)cccc3n(CCCN(C)Cc3ccccc3)c2c1C [Compound 101]	3
10	3	–	COc1c(CNCCCn2c3cccc(CC(=O)O)c3c(=O)c3ccc(C)c(C)c32)ccc(Cl)c1Cl [Compound 28]	1
30 to 100	3 to 10	–	Cc1ccc2c(=O)c3c(C(C)C(=O)O)cccc3n(CCCNCc3ccccc3)c2c1C (stereo not drawn) [Compound 141]	1
–	–	–	Cc1ccc2c(=O)c3ccccc3n(CCCNCc3ccccc3Br)c2c1C [Compound 44]	5
